Source: patent publication US9914698B2, “Stearoyl amino acid salt and preparation method and application thereof” (Shanghai Jiaotong University School of Medicine, priority 2014, dated 2018)
Marks after values point to notes of the source that are not given here.

What was measured:
[1] = system: gerbil model with global ischemia reperfusion injury; assay: Neurobehavioral scores of acute cerebral ischemia reperfusion model; format: in vivo; conditions: ischemic model group 3.1+/−0.32
Excerpt: Taking N-stearoyl amino acid potassium NsTyr-2K as an example, a gerbil model with global ischemia reperfusion injury was used to assess the protective role of NsTyr-2K against neurobehavioral disorder caused by cerebral ischemia-reperfusion injury by examining the changing behavioral indexes such as spatial, learning and cognitive functions in the perspective of overall animals during passive dark avoidance test and Morris water maze test.

[2] = system: obese mouse model; assay: Collection and observation of fat and liver tissues of obese mice; format: in vivo, C57BL/6 mice; conditions: for perirenal fat percentage quality: HFD I blank 1.63 ± 0.10; for Epididymal fat percentage quality: HFD I blank 2.99 ± 0.08; for Liver percentage quality: HFD I blank 3.51 ± 0.07
Excerpt: 2. Method: After administration test in Embodiment 8, the mice were denied food overnight. Their abdominal cavity was opened to observe abdominal fat content in each group of the mice. Epididymal fat, perirenal fat and liver were separated and weighed.

SMILES: CCCCCCCCCCCCCCCCCC(=O)N[C@@H](Cc1ccc(O)cc1)C(=O)[O-].[K+] [NsTyr-2K, N-stearoyl tyrosine potassium salt]
- neurobehavioral score ([1]; 15 mg/kg): 1.76+/−0.48
- neurobehavioral score ([1]; 30 mg/kg): 1.25+/−0.31
- perirenal fat percentage quality ([2]; 20 mg/kg/day): 1.51 ± 0.07 g/100 g weight
- Epididymal fat percentage quality ([2]; 20 mg/kg/day): 2.94 ± 0.11 g/100 g weight
- Liver percentage quality ([2]; 20 mg/kg/day): 3.47 ± 0.05 g/100 g weight
- perirenal fat percentage quality ([2]; 60 mg/kg/day): 1.37 ± 0.04 g/100 g weight
- Epididymal fat percentage quality ([2]; 60 mg/kg/day): 2.72 ± 0.07 g/100 g weight
- Liver percentage quality ([2]; 60 mg/kg/day): 3.41 ± 0.06***^ g/100 g weight
- perirenal fat percentage quality ([2]; 100 mg/kg/day): 1.26 ± 0.05 g/100 g weight
- Epididymal fat percentage quality ([2]; 100 mg/kg/day): 2.64 ± 0.08 g/100 g weight
- Liver percentage quality ([2]; 100 mg/kg/day): 3.46 ± 0.07***^ g/100 g weight
- abdominal fat pad ([2]; increasing doses 20, 60, 100 mg/kg/day, compared with HFD I): the abdominal fat pad showed a shrinking trend
- abdominal fat quality, compared with Orlistat ([2]; same dose (100 mg/kg)): better effects in reducing abdominal fat quality than Orlistat
